According to patent publication US20160375006A1, “USES OF PARALOG-SELECTIVE INHIBITORS OF GSK3 KINASES” (priority 2012, published 2016):
Where two headings read alike, the source gives them in different places.

Columns and labels:
[1] = molecular target: TIE2 (Homo sapiens, UniProt Q02763)
Experimental: (§1) This was completed utilizing one of two assays depending on the kinase being examined.
(§2) A solution of IMAP binding reagent (IMAP Screening Express kit; Molecular Devices) (60 μL) was added to each well and incubated for 30 minutes.
(§3) A solution of termination buffer (QuickScout Screening assist MSA; Carna Biosciences) (60 μL) was added to each well. The entire reaction mixture was then applied to a LabChip3000 system (Caliper Life Science) and the product and substrate peptide peaks were separated and quantified.
(§4) The assay utilized was identical to that of the single point inhibitory activity determination (MSA) but run in dose response. […] A solution of termination buffer (QuickScout Screening assist MSA; Carna Biosciences) (60 μL) was added to each well. The entire reaction mixture was then applied to a LabChip3000 system (Caliper Life Science) and the product and substrate peptide peaks were separated and quantified.

[2] = molecular target: PKCι (Homo sapiens, UniProt P41743)
Text: as §1
(§5) The assay utilized was identical to that of the single point inhibitory activity determination (MSA) but run in dose response.

[3] = molecular target: MLK1_Cascade (Homo sapiens, UniProt P80192)
Experimental: as §1, §3, §5

[4] = molecular target: SRM (Homo sapiens, UniProt Q9H3Y6)
Experimental: as §1, §2, §3, §4

[5] = molecular target: TRKB (Homo sapiens, UniProt Q16620)
Experimental: as §1, §2, §3, §4

[6] = molecular target: SGK (Homo sapiens, UniProt O00141)
Experimental: as §1, §2, §3, §4

[7] = molecular target: AurC (Homo sapiens, UniProt Q9UQB9)
Experimental: as §1, §2, §3

[8] = molecular target: Haspin (Homo sapiens, UniProt Q8TF76)
Experimental: as §1, §2, §3, §4

[9] = molecular target: CDK2/CycE1 (Homo sapiens, UniProt P24941)
Experimental: as §1, §2, §3, §4

[10] = molecular target: PKCδ (Homo sapiens, UniProt Q05655)
Experimental: as §1, §2, §3, §4

[11] = molecular target: TAOK2 (Homo sapiens, UniProt Q9UL54)
Experimental: as §1, §2, §3

[12] = molecular target: CaMK2δ (Homo sapiens, UniProt Q13557)
Experimental: as §1, §2, §3, §4

[13] = molecular target: MSK2 (Homo sapiens, UniProt O75676)
Experimental: as §1, §2, §3, §4

[14] = molecular target: FYN (Homo sapiens, UniProt P06241)
Experimental: as §1, §2, §3, §4

[15] = molecular target: CaMK1α (Homo sapiens, UniProt Q14012)
Experimental: as §1, §2, §3, §4

[16] = molecular target: FAK (Homo sapiens, UniProt Q05397)
Experimental: as §1, §2, §3, §4

[17] = molecular target: IKKβ (Homo sapiens, UniProt O14920)
Experimental: as §1, §2, §3, §4

[18] = molecular target: PKCβ2 (Homo sapiens, UniProt P05771)
Experimental: as §1, §2, §3

[19] = molecular target: COT_Cascade (Homo sapiens, UniProt P41279)
Experimental: as §1, §2, §3, §4

[20] = molecular target: CaMK2α (Homo sapiens, UniProt Q9UQM7)
Experimental: as §1, §2, §3, §4

[21] = molecular target: PEK (Homo sapiens, UniProt Q9NZJ5)
Experimental: as §1, §2, §3

[22] = molecular target: ALK (Homo sapiens, UniProt Q9UM73)
Experimental: as §1, §2, §3

[23] = molecular target: CDK2/CycA2 (Homo sapiens, UniProt P24941)
Experimental: as §1, §2, §3, §4

[24] = molecular target: FMS (Homo sapiens, UniProt P07333)
Experimental: as §1, §2, §3, §4

[25] = molecular target: LCK (Homo sapiens, UniProt P06239)
Experimental: as §1, §2, §3, §4

[26] = molecular target: PDGFRα(T674I) (Homo sapiens, UniProt P16234, T674I)
Experimental: as §1, §2, §3, §4

[27] = molecular target: BMX (Homo sapiens, UniProt P51813)
Experimental: as §1, §2, §3, §4

[28] = molecular target: p38β (Homo sapiens, UniProt Q15759)
Experimental: as §1, §2, §3, §4

[29] = molecular target: EGFR(L858R) (Homo sapiens, UniProt P00533, L858R)
Experimental: as §1, §2, §3, §4

[30] = molecular target: MST4 (Homo sapiens, UniProt Q9P289)
Experimental: as §1, §2, §3, §4

[31] = molecular target: MAPKAPK5 (Homo sapiens, UniProt Q8IW41)
Experimental: as §1, §2, §3, §4

[32] = molecular target: ABL(T315I) (Homo sapiens, UniProt P00519, T315I)
Experimental: as §1, §2, §3, §4

[33] = molecular target: EGFR(T790M/L858R) (Homo sapiens, UniProt P00533, L858R/T790M)
Experimental: as §1, §2, §3, §4

[34] = molecular target: MRCKβ (Homo sapiens, UniProt Q9Y5S2)
Experimental: as §1, §2, §3, §4

[35] = molecular target: NuaK1 (Homo sapiens, UniProt O60285)
Experimental: as §1, §2, §3, §4

[36] = molecular target: CK1ε (Homo sapiens, UniProt P49674)
Experimental: as §1, §2, §3

[37] = molecular target: CaMK1δ (Homo sapiens, UniProt Q8IU85)
Experimental: as §1, §2, §3, §4

[38] = molecular target: AMPKα2/β1/γ1 (Homo sapiens, UniProt P54646)
Experimental: as §1, §3, §5

[39] = molecular target: CSK (Homo sapiens, UniProt P41240)
Experimental: as §1, §2, §3, §4

[40] = molecular target: NEK2 (Homo sapiens, UniProt P51955)
Experimental: as §1, §2, §3, §4

Chain of MRCKβ (Q9Y5S2 whole entry): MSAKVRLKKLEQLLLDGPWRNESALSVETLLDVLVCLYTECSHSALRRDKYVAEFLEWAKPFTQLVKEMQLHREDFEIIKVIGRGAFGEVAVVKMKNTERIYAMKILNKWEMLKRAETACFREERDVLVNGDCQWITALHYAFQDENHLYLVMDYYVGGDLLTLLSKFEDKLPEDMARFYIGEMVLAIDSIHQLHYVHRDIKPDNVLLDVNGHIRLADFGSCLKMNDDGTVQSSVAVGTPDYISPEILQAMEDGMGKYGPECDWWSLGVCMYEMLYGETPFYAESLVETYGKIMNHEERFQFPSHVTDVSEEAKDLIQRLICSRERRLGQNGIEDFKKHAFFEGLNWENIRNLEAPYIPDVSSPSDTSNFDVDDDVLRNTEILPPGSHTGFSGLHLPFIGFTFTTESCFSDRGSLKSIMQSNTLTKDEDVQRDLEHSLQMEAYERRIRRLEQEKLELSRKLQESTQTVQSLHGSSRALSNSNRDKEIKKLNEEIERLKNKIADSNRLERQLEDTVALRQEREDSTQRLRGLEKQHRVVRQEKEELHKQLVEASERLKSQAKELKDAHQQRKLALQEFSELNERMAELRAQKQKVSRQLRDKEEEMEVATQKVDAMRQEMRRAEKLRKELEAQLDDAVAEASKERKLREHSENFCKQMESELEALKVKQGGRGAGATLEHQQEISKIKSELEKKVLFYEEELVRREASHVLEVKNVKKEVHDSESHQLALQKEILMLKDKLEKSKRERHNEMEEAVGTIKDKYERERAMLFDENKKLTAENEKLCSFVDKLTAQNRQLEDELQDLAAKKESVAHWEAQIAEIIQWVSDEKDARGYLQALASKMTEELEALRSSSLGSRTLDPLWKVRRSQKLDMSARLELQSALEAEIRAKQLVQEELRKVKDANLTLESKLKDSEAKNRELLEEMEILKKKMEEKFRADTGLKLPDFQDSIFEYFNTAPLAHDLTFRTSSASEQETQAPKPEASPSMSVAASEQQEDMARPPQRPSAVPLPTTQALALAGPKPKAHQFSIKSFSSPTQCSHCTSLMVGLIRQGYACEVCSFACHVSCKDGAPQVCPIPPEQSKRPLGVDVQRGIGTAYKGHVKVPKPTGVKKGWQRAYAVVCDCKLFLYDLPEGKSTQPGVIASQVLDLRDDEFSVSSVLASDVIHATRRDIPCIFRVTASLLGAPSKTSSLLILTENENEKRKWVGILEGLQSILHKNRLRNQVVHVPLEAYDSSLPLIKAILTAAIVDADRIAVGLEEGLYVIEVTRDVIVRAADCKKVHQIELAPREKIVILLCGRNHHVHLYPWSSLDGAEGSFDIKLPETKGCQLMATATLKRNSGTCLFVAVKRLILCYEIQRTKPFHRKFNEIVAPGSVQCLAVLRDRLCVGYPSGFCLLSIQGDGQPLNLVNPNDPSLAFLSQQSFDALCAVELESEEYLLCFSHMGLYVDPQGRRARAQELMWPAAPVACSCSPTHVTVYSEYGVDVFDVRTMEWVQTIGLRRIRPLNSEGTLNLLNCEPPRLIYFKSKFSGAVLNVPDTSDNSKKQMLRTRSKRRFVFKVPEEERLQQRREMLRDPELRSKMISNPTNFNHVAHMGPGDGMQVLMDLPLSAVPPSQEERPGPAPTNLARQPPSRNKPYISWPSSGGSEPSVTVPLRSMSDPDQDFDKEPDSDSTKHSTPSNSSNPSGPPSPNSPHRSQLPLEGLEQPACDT
Chain of LCK (P06239 whole entry): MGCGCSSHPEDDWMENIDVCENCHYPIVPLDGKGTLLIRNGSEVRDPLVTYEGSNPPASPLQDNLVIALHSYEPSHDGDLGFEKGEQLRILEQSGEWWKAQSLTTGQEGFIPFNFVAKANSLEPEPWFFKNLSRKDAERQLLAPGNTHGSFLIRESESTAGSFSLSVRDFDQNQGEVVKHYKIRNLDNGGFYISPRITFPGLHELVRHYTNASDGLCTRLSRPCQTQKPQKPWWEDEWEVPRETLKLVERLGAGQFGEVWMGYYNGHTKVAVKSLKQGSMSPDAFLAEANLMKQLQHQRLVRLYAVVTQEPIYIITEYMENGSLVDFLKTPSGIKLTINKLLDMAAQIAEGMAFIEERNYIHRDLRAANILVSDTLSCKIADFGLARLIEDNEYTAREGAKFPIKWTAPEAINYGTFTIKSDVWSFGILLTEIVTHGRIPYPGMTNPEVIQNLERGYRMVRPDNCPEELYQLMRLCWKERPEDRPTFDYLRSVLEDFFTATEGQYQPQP
Chain of PDGFRα(T674I) (P16234 24-1089 T674I): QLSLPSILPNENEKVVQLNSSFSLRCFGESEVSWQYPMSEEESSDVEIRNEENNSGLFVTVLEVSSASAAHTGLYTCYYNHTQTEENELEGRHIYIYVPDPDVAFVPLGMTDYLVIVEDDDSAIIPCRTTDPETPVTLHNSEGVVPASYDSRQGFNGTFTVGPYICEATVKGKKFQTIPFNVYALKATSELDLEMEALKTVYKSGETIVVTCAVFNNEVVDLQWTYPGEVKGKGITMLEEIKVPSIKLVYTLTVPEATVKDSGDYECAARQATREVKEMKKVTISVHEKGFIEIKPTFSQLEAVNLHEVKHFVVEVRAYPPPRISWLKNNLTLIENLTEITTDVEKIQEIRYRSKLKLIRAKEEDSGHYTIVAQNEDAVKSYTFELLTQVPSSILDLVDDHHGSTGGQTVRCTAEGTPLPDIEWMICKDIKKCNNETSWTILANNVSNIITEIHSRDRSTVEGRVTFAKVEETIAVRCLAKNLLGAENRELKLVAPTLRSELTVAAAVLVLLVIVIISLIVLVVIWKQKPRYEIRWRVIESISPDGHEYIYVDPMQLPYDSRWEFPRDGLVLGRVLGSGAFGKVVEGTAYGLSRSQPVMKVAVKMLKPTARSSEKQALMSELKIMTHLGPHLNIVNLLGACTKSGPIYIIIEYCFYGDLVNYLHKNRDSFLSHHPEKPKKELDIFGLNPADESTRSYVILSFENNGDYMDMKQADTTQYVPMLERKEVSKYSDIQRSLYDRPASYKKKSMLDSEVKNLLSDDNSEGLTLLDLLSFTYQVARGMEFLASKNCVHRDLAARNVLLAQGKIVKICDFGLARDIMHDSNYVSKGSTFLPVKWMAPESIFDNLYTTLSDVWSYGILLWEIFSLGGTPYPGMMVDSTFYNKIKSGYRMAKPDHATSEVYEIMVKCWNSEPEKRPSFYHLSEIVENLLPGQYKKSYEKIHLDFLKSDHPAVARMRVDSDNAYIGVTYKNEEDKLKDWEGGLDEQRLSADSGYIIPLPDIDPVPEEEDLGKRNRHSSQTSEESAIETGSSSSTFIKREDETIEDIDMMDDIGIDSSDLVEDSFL
Chain of MSK2 (O75676 whole entry): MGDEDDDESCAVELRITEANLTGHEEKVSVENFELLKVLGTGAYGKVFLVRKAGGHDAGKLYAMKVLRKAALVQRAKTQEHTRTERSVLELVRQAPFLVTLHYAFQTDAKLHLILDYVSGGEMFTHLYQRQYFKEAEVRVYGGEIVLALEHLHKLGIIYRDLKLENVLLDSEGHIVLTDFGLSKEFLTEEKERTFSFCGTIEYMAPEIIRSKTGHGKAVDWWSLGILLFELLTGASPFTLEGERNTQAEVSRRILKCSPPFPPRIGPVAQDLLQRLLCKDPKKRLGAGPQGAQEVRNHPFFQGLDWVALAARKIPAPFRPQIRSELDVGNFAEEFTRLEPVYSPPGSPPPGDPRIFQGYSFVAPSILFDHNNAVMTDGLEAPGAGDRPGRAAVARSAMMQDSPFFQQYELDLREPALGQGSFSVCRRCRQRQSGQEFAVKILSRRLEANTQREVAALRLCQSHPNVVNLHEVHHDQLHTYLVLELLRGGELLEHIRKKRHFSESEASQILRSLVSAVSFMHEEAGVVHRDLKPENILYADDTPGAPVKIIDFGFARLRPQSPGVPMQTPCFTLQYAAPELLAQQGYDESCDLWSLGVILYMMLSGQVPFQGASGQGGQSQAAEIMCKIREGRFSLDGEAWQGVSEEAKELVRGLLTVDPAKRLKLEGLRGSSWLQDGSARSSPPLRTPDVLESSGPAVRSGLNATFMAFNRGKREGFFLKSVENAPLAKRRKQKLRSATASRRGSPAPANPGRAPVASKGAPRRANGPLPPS
Chain of CK1ε (P49674 whole entry): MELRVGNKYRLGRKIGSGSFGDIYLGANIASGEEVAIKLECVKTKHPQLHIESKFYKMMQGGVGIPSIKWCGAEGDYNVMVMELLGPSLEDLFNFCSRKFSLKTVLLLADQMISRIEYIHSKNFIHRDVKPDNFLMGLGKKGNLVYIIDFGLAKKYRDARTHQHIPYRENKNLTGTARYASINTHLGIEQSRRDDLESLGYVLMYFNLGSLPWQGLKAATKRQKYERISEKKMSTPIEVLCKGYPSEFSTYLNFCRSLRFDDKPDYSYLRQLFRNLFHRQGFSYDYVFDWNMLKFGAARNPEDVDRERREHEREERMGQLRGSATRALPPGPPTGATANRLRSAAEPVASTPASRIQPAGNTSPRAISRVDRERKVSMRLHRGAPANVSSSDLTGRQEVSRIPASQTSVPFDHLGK
Chain of AurC (Q9UQB9 whole entry): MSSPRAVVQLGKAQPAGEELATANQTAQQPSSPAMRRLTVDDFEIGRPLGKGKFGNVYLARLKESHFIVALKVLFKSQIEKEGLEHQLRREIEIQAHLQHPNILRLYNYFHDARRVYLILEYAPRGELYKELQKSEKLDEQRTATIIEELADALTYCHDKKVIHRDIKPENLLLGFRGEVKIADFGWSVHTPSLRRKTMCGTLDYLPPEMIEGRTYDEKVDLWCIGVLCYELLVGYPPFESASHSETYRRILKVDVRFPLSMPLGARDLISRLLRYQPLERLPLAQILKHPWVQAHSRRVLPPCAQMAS

For `CC[C@@]1(c2ccccc2)C2=C(CC(C)(C)CC2=O)Nc2n[nH]cc21` [BRD0705], the “% Inhibition at 10 μM” value [1] was 0.3%, the “% Inhibition at 10 μM” value [2] was −4.3% and the “% Inhibition at 10 μM” value [3] was 6.3%. For the same compound, the “% Inhibition at 10 μM” value [4] was −5.5%, the “% Inhibition at 10 μM” value [5] was 4.5% and the “% Inhibition at 10 μM” value [6] was −4.4%. For the same compound, the “% Inhibition at 10 μM” value [7] was 7.3%, the “% Inhibition at 10 μM” value [8] was −5.1% and the “% Inhibition at 10 μM” value ([9]; CDK2/CycE1) was 53.4%. For the same compound, the IC50 ([9]; read-out: IC50 CDK2/CycE1) was 9.43 µM, the “% Inhibition at 10 μM” value [10] was −5.5% and the “% Inhibition at 10 μM” value [11] was −5.8%. The “% Inhibition at 10 μM” value [12] was −4.4%, the “% Inhibition at 10 μM” value [13] was −2.5% and the “% Inhibition at 10 μM” value [14] was 3.1%. For the same compound, the “% Inhibition at 10 μM” value [15] was −4.7%, the “% Inhibition at 10 μM” value [16] was −3.9% and the “% Inhibition at 10 μM” value [17] was −4.0%. For the same compound, the “% Inhibition at 10 μM” value [18] was −5.7%, the “% Inhibition at 10 μM” value [19] was 11.2% and the “% Inhibition at 10 μM” value [20] was −8.6%. The “% Inhibition at 10 μM” value [21] was 1.7%, the “% Inhibition at 10 μM” value [22] was 1.1% and the “% Inhibition at 10 μM” value ([23]; CDK2/CycA2) was 65.3%. For the same compound, the IC50 ([23]; read-out: IC50 CDK2/CycA2) was 6.87 µM, the “% Inhibition at 10 μM” value [24] was −8.2% and the “% Inhibition at 10 μM” value [25] was 5.0%. The “% Inhibition at 10 μM” value [26] was 0.5%, the “% Inhibition at 10 μM” value [27] was 2.7% and the “% Inhibition at 10 μM” value [28] was −2.7%. For the same compound, the “% Inhibition at 10 μM” value [29] was −4.0%, the “% Inhibition at 10 μM” value [30] was −0.4% and the “% Inhibition at 10 μM” value [31] was −1.0%. The “% Inhibition at 10 μM” value [32] was 0.7%, the “% Inhibition at 10 μM” value [33] was −4.0% and the “% Inhibition at 10 μM” value [34] was −9.1%. The “% Inhibition at 10 μM” value [35] was −2.0%, the “% Inhibition at 10 μM” value [36] was −0.4% and the “% Inhibition at 10 μM” value [37] was −3.0%. For the same compound, the “% Inhibition at 10 μM” value [38] was 5.1%, the “% Inhibition at 10 μM” value [39] was 0.9% and the “% Inhibition at 10 μM” value [40] was −4.5%.
In the case of `CC(C)(C)Cc1[nH]nc2c1[C@](C)(c1ccccc1)C1=C(CC(C)(C)CC1=O)N2` [BRD3731], the “% Inhibition 10 μM” value ([1]; 10 μM) is reported as 6.7%, the “% Inhibition 10 μM” value ([2]; 10 μM) is reported as 2.5% and the “% Inhibition 10 μM” value ([3]; 10 μM) is reported as −9.4%. The “% Inhibition 10 μM” value ([4]; 10 μM) was 0.9%, the “% Inhibition 10 μM” value ([5]; 10 μM) was 11.0% and the “% Inhibition 10 μM” value ([6]; 10 μM) was −0.4%. The “% Inhibition 10 μM” value ([7]; 10 μM) was 4.9%, the “% Inhibition 10 μM” value ([8]; 10 μM) was 5.3% and the IC50 ([9]; CDK2/CycE1) was 8.8 µM. For the same compound, the “% Inhibition 10 μM” value ([9]; CDK2/CycE1, 10 μM) was 42.6%, the “Fold Selectivity” value ([9]; IC50 CDK2/CycE1 / IC50 GSK3β) was 326.9 fold and the “% Inhibition 10 μM” value ([10]; 10 μM) was 10.7%. The “% Inhibition 10 μM” value ([11]; 10 μM) was 2.2%, the “% Inhibition 10 μM” value ([12]; 10 μM) was −0.3% and the “% Inhibition 10 μM” value ([13]; 10 μM) was 12.6%. For the same compound, the “% Inhibition 10 μM” value ([14]; 10 μM) was −1.3%, the “% Inhibition 10 μM” value ([15]; 10 μM) was 4.7% and the “% Inhibition 10 μM” value ([16]; 10 μM) was 2.3%. For the same compound, the “% Inhibition 10 μM” value ([17]; 10 μM) was 0.2%, the “% Inhibition 10 μM” value ([18]; 10 μM) was 3.8% and the “% Inhibition 10 μM” value ([19]; 10 μM) was 10.5%. For the same compound, the “% Inhibition 10 μM” value ([20]; 10 μM) was −4.3%, the “% Inhibition 10 μM” value ([21]; 10 μM) was 1.4% and the “% Inhibition 10 μM” value ([22]; 10 μM) was 3.0%. For the same compound, the IC50 ([23]; CDK2/CycA2) was greater than 10 µM, the “% Inhibition 10 μM” value ([23]; CDK2/CycA2, 10 μM) was 36.3% and the “Fold Selectivity” value ([23]; IC50 CDK2/CycA2 / IC50 GSK3β) was greater than 370 fold. The “% Inhibition 10 μM” value ([24]; 10 μM) was 5.2%, the “% Inhibition 10 μM” value ([25]; 10 μM) was 9.2% and the “% Inhibition 10 μM” value ([26]; 10 μM) was 3.1%. The “% Inhibition 10 μM” value ([27]; 10 μM) was −3.8%, the “% Inhibition 10 μM” value ([28]; 10 μM) was −0.2% and the “% Inhibition 10 μM” value ([29]; 10 μM) was −1.2%. The “% Inhibition 10 μM” value ([30]; 10 μM) was 6.4%, the “% Inhibition 10 μM” value ([31]; 10 μM) was 6.1% and the “% Inhibition 10 μM” value ([32]; 10 μM) was −2.4%. The “% Inhibition 10 μM” value ([33]; 10 μM) was −4.0%, the “% Inhibition 10 μM” value ([34]; 10 μM) was −0.7% and the “% Inhibition 10 μM” value ([35]; 10 μM) was −0.9%. The “% Inhibition 10 μM” value ([36]; 10 μM) was 28.0%, the “% Inhibition 10 μM” value ([37]; 10 μM) was 16.7% and the “% Inhibition 10 μM” value ([38]; 10 μM) was 16.7%. For the same compound, the “% Inhibition 10 μM” value ([39]; 10 μM) was 1.9% and the “% Inhibition 10 μM” value ([40]; 10 μM) was −2.1%.
